Results taken from paper PMC11784099 (Journal of Virology, 2024).
Where two headings read alike, the source gives them in different places.

What was measured:
[1] = system: cGAS/STING signaling pathway; assay type: cell-based, pigs
in vitro = details: pig
[2] = system: Pseudorabies virus (Ra strain); test: microbe, parasite or virus in culture; assay type: cell-based
p-IRF3 = assay type: cell-based, pigs
IFN-β promoter = assay type: cell-based
[3] = system: type I interferon signaling pathway; design: species or system mice; details: mouse, in vivo
cGAMP production = assay type: cell-based, pigs
[4] = system: JAK/STAT signaling pathway; assay type: cell-based, pigs
IFN-β = system: IFN-β; design: species or system mice; details: mouse, in vivo
[5] = system: cGAS/STING signaling pathway; assay type: cell-based
[6] = system: type I interferon signaling pathway; design: species or system mice; details: mouse, in vivo; remark: listed apart in the source
PRV [7] = details: mouse, in vivo; cited from earlier work
[8] = system: IRF3 phosphorylation (cGAS/STING signaling pathway); assay type: cell-based, pigs
PRV [9] = system: PRV; design: species or system mice; details: mouse, in vivo
[10] = system: JAK/STAT signaling pathway; assay type: cell-based, pigs; remark: listed apart in the source
[11] = Suid alphaherpesvirus 1, PK-15, 1 h

**Q.** With `COc1ccc([C@@H]2CC(=O)c3c(O)cc(O[C@@H]4O[C@H](CO[C@@H]5O[C@@H](C)[C@H](O)[C@@H](O)[C@H]5O)[C@@H](O)[C@H](O)[C@H]4O)cc3O2)cc1O` [Hesperidin] as the compound, how does the CC50 (PK-15 cells) read?
**A.** > 238 µM

**Q.** Which “mRNA expression level of cGAS” value [1] does the source give for `O=C1C[C@@H](c2ccc(O)cc2)Oc2cc(O)cc(O)c21` [Naringenin] here?
**A.** significantly enhance

**Q.** What about the “mRNA level of IRF3” value [1] of the same compound?
**A.** no discernible differences

**Q.** And the “mRNA levels of IFN-β” value [1]?
**A.** significantly elevate

**Q.** With `COc1cc(C2Oc3cc([C@H]4Oc5cc(O)cc(O)c5C(=O)[C@@H]4O)ccc3OC2CO)ccc1O` (some centres unmarked) [Silibinin] as the compound, how does the CC50 (in vitro) read?
**A.** 392 µM

**Q.** What about the IC50 [2, 11] of the same compound?
**A.** 203 µM

**Q.** For `OC[C@H]1O[C@@H](Oc2cc(O)cc(/C=C/c3ccc(O)cc3)c2)[C@H](O)[C@@H](O)[C@@H]1O` [Polydatin], which CC50 (in vitro) is on record?
**A.** > 466 µM

**Q.** With `O=c1c2cc(O)c(O)cc2oc2cc(O)c([C@@H]3O[C@H](CO)[C@@H](O)[C@H](O)[C@H]3O)c(O)c12` [Mangiferin] as the compound, how does the CC50 (in vitro) read?
**A.** > 1050 µM

**Q.** Which results are given for `O=c1c(O)c(-c2cc(O)c(O)c(O)c2)oc2cc(O)cc(O)c12` [Myricetin]?
**A.** total amount of IRF3 phosphorylation (fluorescence intensity) (p-IRF3): significant enhancement; expression level of the IFN-β promoter, ratio to infected control group (IFN-β promoter): ~2 fold; expression levels of antiviral effectors MX1, OAS1 and ISG15 in brain and kidney [3]: higher expression levels; increase in cGAMP production compared with the blank group (cGAMP production): ~1.5 fold; CC50 (in vitro): > 1000 µM; effect proteins ISG15 and OAS1 [4]: significantly increased; protein levels of STAT1, p-STAT1 and p-STAT1/STAT1 [4]: significantly higher; production of IFN-β in tissues (ELISA) (IFN-β): significantly promote; protein expressions of cGAS, STING, TBK1, IRF3 and p-IRF3 [5]: significantly increase; IC50 [2, 11]: 42.7 µM; transcriptional levels of cGAS, STING, TBK1, IRF3, IRF7, IFN-β, ISG56 and ISG54 in heart, liver, spleen, lung and kidney [6]: significantly higher; mortality rate at 4 dpi (PRV [7]): 0%; mortality rate at 5 dpi (PRV [7]): 30%; reduction in viral copies in the kidney (PRV [7]): up to 80 fold; levels of p-IRF3 and p-IRF3/IRF3 [8]: significantly elevated; mortality rate at 4 dpi (PRV [9]): 70%; mRNA expression level of cGAS [1]: significantly enhance; mRNA level of IRF3 [1]: significantly increase; mRNA level of STING [1]: significantly increase; mRNA levels of IFN-β [1]: significantly elevate; mRNA levels of cGAS, STING, TBK1, IRF3, IRF7 and IFN-β [1]: all increased; transcriptional levels of JAK1, STAT1, IRF9, ISG15, ISG56 and ISG54 [10]: notable elevation

**Q.** For `O=c1cc(-c2ccccc2)oc2cc(O)c(O)c(O)c12` [Baicalein], which IC50 ([2]; read-out: IC50) is on record?
**A.** 291 µM

**Q.** What about the “mRNA expression level of cGAS” value [1] of the same compound?
**A.** significantly enhance

**Q.** And the “mRNA level of IRF3” value [1]?
**A.** no discernible differences

**Q.** And the “mRNA level of STING” value [1]?
**A.** significantly increase

**Q.** And the “mRNA levels of IFN-β” value [1]?
**A.** significantly elevate

**Q.** And the CC50 (PK-15 cells)?
**A.** 563 µM

**Q.** With `Oc1ccc(/C=C/c2cc(O)cc(O)c2)cc1` [resveratrol] as the compound, how does the IC50 [2, 11] read?
**A.** 23.2 to 323 µM

**Q.** With `O=c1cc(-c2ccc(O)c(O)c2)oc2cc(O)cc(O)c12` [Lutelin] as the compound, how does the CC50 (in vitro) read?
**A.** 195 µM

**Q.** What about the IC50 [2, 11] of the same compound?
**A.** 36.9 µM

**Q.** And the “mRNA expression level of cGAS” value [1]?
**A.** significantly enhance

**Q.** And the “mRNA level of IRF3” value [1]?
**A.** no discernible differences

**Q.** What about the “mRNA level of STING” value [1] of the same compound?
**A.** significantly increase

**Q.** Which CC50 (in vitro) does the source give for `O=C1c2c(O)cc(O)cc2O[C@H](c2cc(O)c(O)c(O)c2)[C@H]1O` [Dihydromyricetin] here?
**A.** 914 µM

**Q.** And the IC50 [2, 11]?
**A.** 161 µM

**Q.** With `O=c1c(O)c(-c2ccc(O)cc2)oc2cc(O)cc(O)c12` [Kaempferol] as the compound, how does the CC50 (in vitro) read?
**A.** 255 µM

**Q.** What about the IC50 [2, 11] of the same compound?
**A.** 25.6 µM

**Q.** For `COc1ccc(-c2coc3cc(O)cc(O)c3c2=O)cc1` [Biochanin A], which CC50 (PK-15 cells) is on record?
**A.** 382 µM

**Q.** With `COc1ccc([C@@H]2CC(=O)c3c(O)cc(O[C@@H]4O[C@H](CO)[C@@H](O)[C@H](O)[C@H]4O[C@@H]4O[C@@H](C)[C@H](O)[C@@H](O)[C@H]4O)cc3O2)cc1O` [Neohesperidin] as the compound, how does the CC50 (PK-15 cells) read?
**A.** > 1000 µM

**Q.** For `O=C1C[C@@H](c2ccc(O)cc2)Oc2cc(O)ccc21` [Liquiritigenin], which IC50 ([2]; read-out: IC50) is on record?
**A.** 323 µM

**Q.** And the CC50 (PK-15 cells)?
**A.** 790 µM

**Q.** With `CC1(C)[C@@H](O[C@H]2O[C@H](C(=O)O)[C@@H](O)[C@H](O)[C@H]2O[C@@H]2O[C@H](C(=O)O)[C@@H](O)[C@H](O)[C@H]2O)CC[C@]2(C)[C@H]3C(=O)C=C4[C@@H]5C[C@@](C)(C(=O)O)CC[C@]5(C)CC[C@@]4(C)[C@]3(C)CC[C@@H]12` [glycyrrhizic acid] as the compound, how does the IC50 [2, 11] read?
**A.** 23.2 to 323 µM

**Q.** Which CC50 (PK-15 cells) does the source give for Pueraria here?
**A.** > 461 µM

**Q.** For `O=C(O)[C@H]1O[C@@H](Oc2cc3oc(-c4ccc(O)cc4)cc(=O)c3c(O)c2O)[C@H](O)[C@@H](O)[C@@H]1O` [Scutellarin], which CC50 (in vitro) is on record?
**A.** > 213 µM

**Q.** For `O=c1c(O)c(-c2ccc(O)c(O)c2)oc2cc(O)cc(O)c12` [Quercetin], which CC50 (in vitro) is on record?
**A.** 449 µM

**Q.** What about the CC50 (PK-15 cells; pig) of the same compound?
**A.** 890 µM

**Q.** Which CC50 (in vitro) does the source give for `O=c1c(O)c(-c2ccc(O)c(O)c2)oc2cc(O)ccc12` [Fisetin] here?
**A.** 717 µM

**Q.** What about the IC50 [2] of the same compound?
**A.** –^b

**Q.** Which CC50 (in vitro) does the source give for `COc1ccc(-c2oc3c(CC=C(C)C)c(O[C@@H]4O[C@H](CO)[C@@H](O)[C@H](O)[C@H]4O)cc(O)c3c(=O)c2O[C@@H]2O[C@@H](C)[C@H](O)[C@@H](O)[C@H]2O)cc1` [Icariin] here?
**A.** > 382 µM

**Q.** With `O=c1cc(-c2ccccc2)oc2cc(O)cc(O)c12` [Chrysin] as the compound, how does the CC50 (in vitro) read?
**A.** 107 µM

**Q.** Which CC50 (in vitro) does the source give for `C[C@@H]1O[C@@H](OC[C@H]2O[C@@H](Oc3c(-c4ccc(O)c(O)c4)oc4cc(O)cc(O)c4c3=O)[C@H](O)[C@@H](O)[C@@H]2O)[C@H](O)[C@H](O)[C@H]1O` [Rutin] here?
**A.** > 389 µM

**Q.** With `COc1ccc(-c2coc3cc(O)ccc3c2=O)cc1` [Formononetin] as the compound, how does the CC50 (in vitro) read?
**A.** 228 µM

**Q.** Which CC50 (PK-15 cells) does the source give for `COc1cc2c(cc1OC)-c1cc3ccc(OC)c(OC)c3c[n+]1CC2` [Palmatine] here?
**A.** 1250 µM
